Results from patent US20080319020A1, “4-Oxadiazolyl-Piperidine Compounds and Use Thereof” (Purdue Pharma L.P., priority 2005, published 2008).
Where two headings read alike, the source gives them in different places.

Legend:
μ opioid receptor [1] = target: T1, μ opioid receptor (Homo sapiens, UniProt P35372); assay: μ-opioid receptor radioligand dose-displacement binding assay ([3H]-diprenorphine)
Description: (§1) Radioligand dose-displacement binding assays for ORL-1 and μ receptors use 0.1 nM [^3H]-nociceptin or 0.2 nM [^3H]-diprenorphine (NEN, Boston, Mass.), respectively, with […] membrane protein/well in a final volume of […] binding buffer (10 mM MgCl2, 1 mM EDTA, 5% DMSO, 50 mM HEPES, pH 7.4). Reactions are carried out in the absence or presence of increasing concentrations of unlabeled nociceptin (American Peptide Company, Sunnyvale, Calif.) or naloxone, for ORL-1 and […], respectively. All reactions are conducted in 96-deep well polypropylene plates for 1-2 h at room temperature. Binding reactions are terminated by rapid filtration onto 96-well Unifilter GF/C filter plates (Packard, Meriden, Conn.) presoaked in 0.5% polyethylenimine using a 96-well tissue harvester (Brandel, Gaithersburg, Md.) followed by three filtration washes with 500 μL of ice-cold binding buffer. Filter plates are subsequently dried at 50° C. for 2-3 h. BetaScint scintillation cocktail (Wallac, Turku, Finland) is added (50 μl/well), and plates are counted using a Packard Top-Count for 1 min/well. The data are analyzed using the one-site competition curve fitting functions in GraphPad PRISM v. 3.0 (San Diego, Calif.).

[2] = target: T2, human opioid receptor-like (ORL-1) receptor (Homo sapiens, UniProt P41146); assay: ORL-1 receptor radioligand dose-displacement binding assay ([3H]-nociceptin)
T2 construct: host or cells: HEK-293
T2 sequence (P41146 whole entry): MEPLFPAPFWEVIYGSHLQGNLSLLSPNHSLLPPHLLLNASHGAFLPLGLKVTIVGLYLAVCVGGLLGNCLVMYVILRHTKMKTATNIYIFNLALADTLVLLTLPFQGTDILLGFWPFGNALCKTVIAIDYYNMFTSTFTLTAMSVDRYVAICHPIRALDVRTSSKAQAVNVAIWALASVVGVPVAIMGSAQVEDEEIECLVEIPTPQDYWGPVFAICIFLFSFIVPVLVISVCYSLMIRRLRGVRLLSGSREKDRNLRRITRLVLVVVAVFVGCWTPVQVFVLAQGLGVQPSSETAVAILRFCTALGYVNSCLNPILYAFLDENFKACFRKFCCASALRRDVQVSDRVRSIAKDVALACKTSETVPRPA
Description: All reagents are obtained from Sigma (St. Louis, Mo.) unless noted otherwise. Membranes from recombinant HEK-293 cells expressing the human opioid receptor-like (ORL-1) receptor (Perkin Elmer, Boston, Mass.) are prepared by lysing cells in ice-cold hypotonic buffer (2.5 mM MgCl2, 50 mM HEPES, pH 7.4) (10 mL/10 cm dish), followed by homogenization with a tissue grinder/teflon pestle. Membranes are collected by centrifugation at 30,000×g for 15 min at 4° C., and pellets are resuspended in hypotonic buffer to a final concentration of 1-3 mg/mL. Protein concentrations are determined using the BioRad (Hercules, Calif.) protein assay reagent with bovine serum albumen as standard. Aliquots of the ORL-1 receptor membranes are stored at −80° C.
as §1

delta opioid receptor [3] = target: T3, delta opioid receptor (Homo sapiens, UniProt P41143); assay: δ opioid receptor binding assay ([3H]-Naltrindole)
T3 construct: purchased Perkin Elmer; host or cells: CHO-K1
T3 sequence (P41143 whole entry): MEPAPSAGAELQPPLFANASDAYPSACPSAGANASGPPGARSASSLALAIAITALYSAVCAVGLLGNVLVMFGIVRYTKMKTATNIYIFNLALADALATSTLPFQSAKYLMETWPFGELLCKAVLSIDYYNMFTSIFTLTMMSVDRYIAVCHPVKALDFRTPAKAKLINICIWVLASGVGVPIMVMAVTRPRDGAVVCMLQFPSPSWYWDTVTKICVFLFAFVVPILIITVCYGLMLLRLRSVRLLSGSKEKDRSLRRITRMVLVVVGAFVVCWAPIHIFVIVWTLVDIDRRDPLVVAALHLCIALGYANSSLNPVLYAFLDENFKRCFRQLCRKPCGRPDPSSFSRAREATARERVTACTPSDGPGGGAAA
Description: Radioligand dose-displacement assays used 0.2 nM [^3H]-Naltrindole (NEN; 33.0 Ci/mmole) with 10-20 μg membrane protein (recombinant delta opioid receptor expressend in CHO-K1 cells; Perkin Elmer) in a final volume of 500 μl binding buffer (5 mM MgCl2, 5% DMSO, 50 mM Trizma base, pH 7.4). Non-specific binding was determined in the presence of 25 μM unlabeled naloxone. All reactions were performed in 96-deep well polypropylene plates for 1 h at room temperature. Binding reactions were determined by rapid filtration onto 96-well Unifilter GF/C filter plates (Packard) presoaked in 0.5% polyethylenimine (Sigma). Harvesting was performed using a 96-well tissue harvester (Packard) followed by five filtration washes with 500 μl ice-cold binding buffer. Filter plates were subsequently dried at 50° C. for 1-2 hours. Fifty μl/well scintillation cocktail (MicroScint, Packard) was added and plates were counted in a Packard Top-Count for 1 min/well.

kappa opioid receptor [4] = target: T4, kappa opioid receptor (Homo sapiens, UniProt P41145); assay: κ opioid receptor binding assay ([3H]-U69,593)
T4 construct: expressed in transfected cells; host or cells: HEK-293
T4 sequence (P41145 whole entry): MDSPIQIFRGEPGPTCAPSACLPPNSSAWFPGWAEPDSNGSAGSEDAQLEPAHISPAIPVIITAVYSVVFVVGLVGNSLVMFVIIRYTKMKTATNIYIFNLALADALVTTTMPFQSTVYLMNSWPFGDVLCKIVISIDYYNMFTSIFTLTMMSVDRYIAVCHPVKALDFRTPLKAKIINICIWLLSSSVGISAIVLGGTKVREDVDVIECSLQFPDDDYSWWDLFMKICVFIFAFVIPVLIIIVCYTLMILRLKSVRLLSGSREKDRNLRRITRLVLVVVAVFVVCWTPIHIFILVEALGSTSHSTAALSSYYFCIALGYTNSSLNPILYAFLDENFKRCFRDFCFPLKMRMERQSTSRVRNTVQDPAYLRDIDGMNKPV
Description: Membranes from recombinant HEK-293 cells expressing the human kappa opioid receptor (kappa) (cloned in house) were prepared by lysing cells in ice cold hypotonic buffer (2.5 mM MgCl2, 50 mM HEPES, pH 7.4) (10 ml/10 cm dish) followed by homogenization with a tissue grinder/teflon pestle. Membranes were collected by centrifugation at 30,000×g for 15 min at 4° C. and pellets resuspended in hypotonic buffer to a final concentration of 1-3 mg/ml. Protein concentrations were determined using the BioRad protein assay reagent with bovine serum albumen as standard. Aliquots of kappa receptor membranes were stored at −80° C.
Radioligand dose displacement assays used 0.4-0.8 nM [^3H]-U69,593 (NEN; 40 Ci/mmole) with 10-20 μg membrane protein (recombinant kappa opioid receptor expressed in HEK 293 cells; in-house prep) in a final volume of 200 μl binding buffer (5% DMSO, 50 mM Trizma base, pH 7.4). Non-specific binding was determined in the presence of 10 μM unlabeled naloxone or U69,593. All reactions were performed in 96-well polypropylene plates for 1 h at room temperature. Binding reactions were determined by rapid filtration onto 96-well Unifilter GF/C filter plates (Packard) presoaked in 0.5% polyethylenimine (Sigma). Harvesting was performed using a 96-well tissue harvester (Packard) followed by five filtration washes with 200 μl ice-cold binding buffer. Filter plates were subsequently dried at 50° C. for 1-2 hours. Fifty μl/well scintillation cocktail (MicroScint; Packard) was added and plates were counted in a Packard Top-Count for 1 min/well.

μ opioid receptor [5] = target: T1, μ opioid receptor; assay: μ-receptor [35S]GTPγS functional assay; type: biochemical; settings: for Emax: maximal effect relative to DAMGO, read-out: μ GTP Emax
Description: [^35S]GTPγS functional assays are conducted using freshly thawed ORL-1 or μ-receptor membranes, as appropriate. Assay reactions are prepared by sequentially adding the following reagents to binding buffer (100 mM NaCl, 10 mM MgCl2, 20 mM HEPES, pH 7.4) on ice (final concentrations indicated): membrane protein (0.066 mg/mL for ORL-1 receptor and 0.026 mg/mL for μ-receptor), saponin ([…]), GDP ([…]) and [^35S]GTPγS (0.20 nM; NEN). Aliquots of the prepared membrane solution (190 μL/well) are transferred to 96-shallow well polypropylene plates containing 10 μL of 20× concentrated stock solutions of the agonist nociceptin prepared in dimethyl sulfoxide (“DMSO”). Plates are incubated for 30 min at room temperature with shaking. Reactions are terminated by rapid filtration onto 96-well Unifilter GF/B filter plates (Packard, Meriden, Conn.) using a 96-well tissue harvester (Brandel, Gaithersburg, Md.) followed by three filtration washes with 200 μL of ice-cold binding buffer (10 mM NaH2PO4, 10 mM Na2HPO4, pH 7.4). Filter plates are subsequently dried at 50° C. for 2-3 h. BetaScint scintillation cocktail (Wallac, Turku, Finland) is added (50 μL/well) and plates are counted using a Packard Top-Count for 1 min/well. Data are analyzed using the sigmoidal dose-response curve fitting functions in GraphPad PRISM, v. 3.0.
μ GTP EC50 is the concentration of a compound providing 50% of the maximal response for the compound at a μ receptor.
μ GTP Emax % is the maximal effect elicited by a compound relative to the effect elicited by [D-Ala2, N-methyl-Phe4, Gly-ol5]-enkephalin (“DAMGO”), a standard μ agonist. Generally, the μ GTP Emax (%) value measures the efficacy of a compound to treat or prevent pain or diarrhea.

delta opioid receptor [6] = target: T3, delta opioid receptor; assay: δ opioid receptor functional [35S]GTPγS binding assay; type: biochemical; settings: for Emax: maximal effect relative to met-enkephalin, read-out: δ GTP Emax
Description: δ GTP EC50 is the concentration of a compound providing 50% of the maximal response for the compound at an δ receptor.
δ GTP Emax % is the maximal effect elicited by a compound relative to the effect elicited by met-enkephalin.
(§2) The κ and δ opioid receptor functional [^35S]GTPγS binding assays were conducted as follows. Kappa or delta opioid receptor membrane solution was prepared by sequentially adding final concentrations of 0.026 μg/μl membrane protein (kappa: in-house, delta: Perkin Elmer), 10 μg/ml saponin, 3 μM GDP and 0.20 nM [^35S]GTPγS to binding buffer (100 mM NaCl, 10 mM MgCl2, 20 mM HEPES, pH 7.4) on ice. The prepared membrane solution (190 μl/well) was transferred to 96-shallow well polypropylene plates containing 10 μl of 20× concentrated stock solutions of agonist prepared in DMSO. Plates were incubated for 30 min at room temperature with shaking. Reactions were terminated by rapid filtration onto 96-well tissue harvester (Packard) and followed by three filtration washes with 200 μl ice-cold binding buffer (10 mM NaH2PO4), 10 mM Na2HPO4, pH 7.4). Filter plates were subsequently dried at 50° C. for 2-3 hours. Fifty μl/well scintillation cocktail (MicroScint20, Packard) was added and plates were counted in a Packard Top-Count for 1 min/well.

kappa opioid receptor [7] = target: T4, kappa opioid receptor; assay: κ opioid receptor functional [35S]GTPγS binding assay; type: biochemical; settings: for Emax: maximal effect relative to U69,593, read-out: κ GTP Emax
Description: κ GTP EC50 is the concentration of a compound providing 50% of the maximal response for the compound at an K receptor.
κ GTP Emax % is the maximal effect elicited by a compound relative to the effect elicited by U69,593.
as §2

ORL-1 receptor = target: T5, ORL-1 receptor (Homo sapiens, UniProt P41146); assay: ORL-1 receptor [35S]GTPγS functional assay; type: biochemical
T5 construct: host or cells: HEK-293
T5 sequence (P41146 whole entry): as the sequence (P41146 whole entry) above
Description: Filter plates are subsequently dried at 50° C. for 2-3 h. […] 3.0.

[8] = Ki for binding to μ-opioid receptors

T1 sequence (P35372 whole entry): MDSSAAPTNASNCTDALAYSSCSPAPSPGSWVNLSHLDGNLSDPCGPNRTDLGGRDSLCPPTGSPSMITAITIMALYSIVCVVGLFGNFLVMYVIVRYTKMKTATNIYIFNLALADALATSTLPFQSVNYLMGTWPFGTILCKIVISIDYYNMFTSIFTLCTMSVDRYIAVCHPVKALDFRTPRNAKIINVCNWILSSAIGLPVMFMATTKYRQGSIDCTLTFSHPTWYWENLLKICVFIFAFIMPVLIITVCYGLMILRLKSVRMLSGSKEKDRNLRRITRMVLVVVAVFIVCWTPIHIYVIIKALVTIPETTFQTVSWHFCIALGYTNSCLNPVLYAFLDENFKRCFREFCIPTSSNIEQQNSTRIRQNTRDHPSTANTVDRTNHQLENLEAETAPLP

| SMILES | Ki (μ opioid receptor [1]; read-out: Ki for binding to μ-opioid receptors) [nM] | Ki (μ opioid receptor [1]; read-out: μ Ki) [nM] | Ki [2] [nM] | Ki (delta opioid receptor [3]; read-out: δ Ki) [nM] | Ki (kappa opioid receptor [4]; read-out: κ Ki) [nM] | Emax (μ opioid receptor [5]) [%] | EC50 (μ opioid receptor [5]; read-out: μ GTP EC50) [nM] | Emax (delta opioid receptor [6]) [%] | EC50 (delta opioid receptor [6]; read-out: δ GTP EC50) [nM] | Emax (kappa opioid receptor [7]) [%] | EC50 (kappa opioid receptor [7]; read-out: κ GTP EC50) [nM] | Ki (μ opioid receptor [1]; [8]) [nM] | Ki (μ opioid receptor [1]; μ Ki) [nM] | Ki (delta opioid receptor [3]) [nM] | Ki (kappa opioid receptor [4]) [nM] | EC50 (μ opioid receptor [5]) [nM] | EC50 (ORL-1 receptor) [nM] | Emax (ORL-1 receptor; maximal effect relative to nociceptin, read-out: ORL1 GTP Emax) [%] | EC50 (delta opioid receptor [6]) [nM] | EC50 (kappa opioid receptor [7]) [nM] |
| --- | --- | --- | --- | --- | --- | --- | --- | --- | --- | --- | --- | --- | --- | --- | --- | --- | --- | --- | --- | --- |
| CCOC(=O)Cc1nc(C2(c3ccccc3)CCN(CCC(C(=O)N3CCCC3)(c3ccccc3)c3ccccc3)CC2)no1 [AGE] | 1.3 | 1.29 | 3850 | 341 | 91.9 | 103 | 2.03 | 104 | 21.5 | 56 | 704 | – | – | – | – | – | – | – | – | – |
| CCOC(=O)Cc1nc(C2(c3ccccc3)CCN(CCC(C(=O)N(C)C)(c3ccccc3)c3ccccc3)CC2)no1 [AFL] | – | – | 696 | – | – | 117 | – | 114 | – | 52.7 | – | 1.1 | 1.11 | 223 | 32.9 | 1.04 | > 20000 | 28 | 84 | 1680 |
| CN(C)C(=O)C(CCN1CCC(c2ccccc2)(c2noc(CC(N)=O)n2)CC1)(c1ccccc1)c1ccccc1 [AFE] | – | – | 1840 | – | – | 116 | – | – | – | 44.7 | – | 5.9 | 5.92 | 3620 | 152 | 16.1 | – | – | – | 1260 |
| NC(=O)Cc1nc(C2(c3ccccc3)CCN(CCC(C(=O)N3CCCC3)(c3ccccc3)c3ccccc3)CC2)no1 [AFX] | – | – | 1290 | – | – | 90 | – | – | – | 41.7 | – | 4.8 | 4.82 | 2320 | 365 | 8.09 | – | – | – | 3830 |
